Source: paper PMC4556275 (Drug metabolism and pharmacokinetics, 2010)

Columns and labels:
[1] = Metabolite profiling in HLM incubations by MRM-IDA-EPI; format: in vitro ADME, human; conditions: HLM incubation, MRM-IDA-EPI method
[2] = Metabolic stability in pooled human liver microsomes; format: in vitro ADME; conditions: for CLint (microsomal): 1 μM substrate, 0.5 mg/mL HLM protein, 37°C; for ER (extraction ratio) / Hepatic CL: well-stirred model, Q 1400 mL/min, fu assumed 1

| Compound | number of metabolites formed and detected [1] | CLint (microsomal) [2] | ER (extraction ratio) [2] | Hepatic CL [2] |
| --- | --- | --- | --- | --- |
| O=C(C1CCC(F)(F)CC1)N1CC(=O)N2CCc3ccccc3C2C1 (stereo not drawn) [PZ02, 2-(4,4-difluorocyclohexyl)carbonyl-1,2,3,6,7,11b-hexahydro-4H-pyrazino(2,1-α)isoquinoline-4-one] | Nine | 22.8 μl/min/mg microsomal protein | 0.44 | 620.2 mL/min |
| O=C(N1CCCCC1)N1CC(=O)N2CCc3ccccc3C2C1 (stereo not drawn) [PZ07, 2-piperidinylcarbonyl-1,2,3,6,7,11b-hexa-hydro-4H-pyrazino(2,1-α)isoquinoline-4-one] | – | 22.0 μl/min/mg microsomal protein | 0.43 | 607.9 mL/min |
| O=C(N1CCC(F)(F)CC1)N1CC(=O)N2CCc3ccccc3C2C1 (stereo not drawn) [PZ10, 2-(4,4-difluoropiperidinyl)carbonyl-1,2,3,6,7,11b-hexa-hydro-4H-pyrazino(2,1-α)isoquinoline-4-one] | Eight | 16.2 μl/min/mg microsomal protein | 0.36 | 505.5 mL/min |
